Measured values taken from patent publication US20230065953A1, “NOVEL HETEROARYL-TRIAZOLE COMPOUNDS AS PESTICIDES” (Bayer Aktiengesellschaft, priority 2019, published 2023).

Columns and labels:
Assay type in all cases: in vivo
[1] = tested on: fall armyworm larvae (Spodoptera frugiperda); experiment: Spodoptera frugiperda spray test (maize leaf sections); settings: 168 h
Outline: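 Percent kill of Spodoptera frugiperda caterpillars read at day 7. Larvae placed on dried Zea mays leaf pieces previously sprayed with test preparation, made from acetone plus DMF and diluted with emulsifier-containing water (1000 ppm).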

[2] = tested on: larvae of the banded cucumber beetle (Diabrotica balteata); experiment: Diabrotica balteata spray test; settings: 168 h, 100 g/ha (=32 μg/well), wheat seeds, after 7 days, read-out: efficacy (seedling growth)
Outline: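 Efficacy in % was read 7 days after infesting with 10-20 larvae per unit. Before infestation, 1-day-germinated wheat seedlings (5 per well) were sprayed with the active ingredient, formulated in acetone and dimethylformamide plus emulsifier and diluted with water containing emulsifier.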

[3] = tested on: adult mosquitoes Aedes aegypti strain MONHEIM; experiment: Aedes aegypti test (AEDSAE surface treatment & contact assay); settings: 24 hours after contact, read-out: efficacy (mortality); for mortality at 4 mg/m2: surface concentration 4 mg/m^2, 30 min exposure; for mortality at 20 mg/m2: surface concentration 20 mg/m^2, 30 min exposure
Protocol: Aedes aegypti test (AEDSAE surface treatment & contact assay) • Solvent: Aceton+2000 ppm rapeseed oil methyl ester (RME)
In order to produce a sufficient, active ingredient containing solution it is necessary to solve the test compound in the solvent-mix (acetone at 2 mg/ml/RME 2000 ppm). This solution is pipetted onto a glazed tile and after evaporation of the acetone, adult mosquitoes of the species Aedes aegypti strain MONHEIM are placed onto the dried surface. The exposure time is 30 minutes.
(§1) Mortality in percent (%) is determined 24 hours after contact of the insects to the treated surface. 100% mortality means that all tested insects are dead, whereas 0% means that no insect died.

[4] = tested on: green peach aphid (Myzus persicae); experiment: Myzus persicae spray test; settings: foliar, 120 h, Chinese cabbage leaf disks, after 5 days
Outline: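 Percent mortality read 5 days after spraying, where 100% is total kill and 0% none. The spray contained compound in acetone plus dimethylformamide, diluted with 1000 ppm emulsifier water. It was applied to Brassica pekinensis leaf disks carrying mixed-instar green peach aphids.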

[5] = tested on: adult flies Musca domestica strain WHO-N; experiment: Musca domestica test (MUSCDO surface treatment & contact assay); settings: 24 hours after contact, read-out: efficacy (mortality); for mortality at 4 mg/m2: surface concentration 4 mg/m^2, 30 min exposure; for mortality at 20 mg/m2: surface concentration 20 mg/m^2, 30 min exposure
Outline: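 Percent kill read 24 h post-contact, after adult flies (strain WHO-N) spent 30 min on a glazed tile treated with test solution (acetone, 2 mg/ml, plus 2000 ppm rapeseed oil methyl ester) and dried.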

[6] = tested on: adult mosquitoes Anopheles funestus strain FUMOZ-R; experiment: Anopheles funestus test (ANPHFU surface treatment & contact assay); settings: 24 hours after contact, read-out: efficacy (mortality); for mortality at 20 mg/m2: surface concentration 20 mg/m^2, 30 min exposure; for mortality at 4 mg/m2: surface concentration 4 mg/m^2, 30 min exposure
Protocol: Anopheles funestus Test (ANPHFU Surface Treatment & Contact Assay) • Solvent: Aceton+2000 ppm rapeseed oil methyl ester (RME)
In order to produce a sufficient, active ingredient containing solution it is necessary to solve the test compound in the solvent-mix (acetone at 2 mg/ml/RME 2000 ppm). This solution is pipetted onto a glazed tile and after evaporation of the acetone, adult mosquitoes of the species Anopheles funestus strain FUMOZ-R (Hunt et al., Med. Vet. Entomol. 2005 September; 19(3): 271-275) are placed onto the dried surface. The exposure time is 30 minutes.
as §1

[7] = tested on: adult cat fleas (Ctenocephalides felis); experiment: Ctenocephalides felis in-vitro contact test, adult cat flea; settings: 5 μg/cm^2 (=500 g/ha), after 48 hours
Outline: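 After 48 h of room-temperature exposure in tubes whose walls carried dried compound residue (5 μg/cm^2, from 900 ppm acetone solution), adult cat fleas (5-10 per tube) were heat-challenged at 45-50° C up to 5 min. Fleas unable to climb away were counted dead or moribund, expressed as % efficacy.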

[8] = tested on: adult unfed cat fleas (Ctenocephalides felis); experiment: Ctenocephalides felis oral test; settings: 48 h
Outline: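 About 20 adult unfed fleas fed through parafilm on cattle blood containing compound (DMSO stock diluted in blood), blood held at 37 °C and fleas at room temperature. Mortality (%) scored after 2 days.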

[9] = tested on: adult engorged female ticks (Rhipicephalus microplus); experiment: Rhipicephalus (Boophilus) microplus injection test; settings: 168 h, egg deposition after 7 days, read-out: efficacy (infertile eggs); for pest or weed control at 0.004 mg: 4 μg/animal
Outline: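 Five adult engorged female ticks each injected into the abdomen with 1 μL of compound in DMSO, then kept in a climate chamber. Fertile egg deposition assessed after 7 days, with unclear eggs held until hatching around 42 days; efficacy 100% means all eggs infertile, 0% all fertile.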

[10] = tested on: green peach aphid (Myzus persicae); experiment: Myzus persicae oral test; settings: 120 h
Outline: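 Compound was dissolved in acetone, diluted with water and mixed into IPL41 insect medium with sugar under a parafilm seal. A mixed aphid population fed through the parafilm, and mortality (%) was scored after 5 days.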

[11] = tested on: Rhipicephalus microplus larvae (strain Parkhurst, resistant against synthetic pyrethroids); experiment: Rhipicephalus (Boophilus) microplus in-vitro contact test, larval cattle tick; settings: 5 μg/cm^2 (=500 g/ha), after 48 hours, read-out: efficacy (larvae dead or moribund)
Outline: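 After drying, 20-50 larvae were held per tube at 27° C., 85% relative humidity for 48 h, and efficacy was scored as % dead or moribund.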

[12] = tested on: adult brown dog ticks (Rhipicephalus sanguineus); experiment: Rhipicephalus sanguineus in-vitro contact test with adult brown dog ticks; settings: 5 μg/cm^2 (=500 g/ha), after 48 hours, read-out: efficacy (ticks dead or moribund)
Outline: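 Efficacy is % of adult ticks dead or moribund 48 h after confinement at room temperature in tubes wall-coated from acetone (5 μg/cm² at 900 ppm). Scoring by heat challenge at 45-50 °C up to 5 min; immotile or uncoordinated ticks failing to climb count as affected.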

[13] = tested on: larvae of the southern green stink bug (Nezara viridula); experiment: Nezara viridula spray test; settings: in Hordeum vulgare, 96 h
Outline: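 Mortality (%) of stink bug larvae on treated barley (Hordeum vulgare) was scored 4 days after infestation. Test solutions came from an acetone/DMF concentrate diluted with water containing 1000 ppm emulsifier and were sprayed onto plants before larvae were added.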

[14] = tested on: brown planthopper (Nilaparvata lugens); experiment: Nilaparvata lugens spray test; settings: 96 h, rice plants, after 4 days
Protocol: Nilaparvata lugens—Spray Test • Solvent: 78.0 parts by weight of acetone • 1.5 parts by weight of dimethylformamide • Emulsifier: alkylarylpolyglycol ether
To produce a suitable preparation of active compound, 1 part by weight of active compound is mixed with the stated amount of solvents and is diluted with water, containing an emulsifier concentration of 1000 ppm, to the desired concentration. Further test concentrations are prepared by dilution with emulsifier containing water.
Rice plants (Oryza sativa) are sprayed with a preparation of the active ingredient of the desired concentration and the plants are infested with the brown planthopper (Nilaparvata lugens).
After 4 days mortality in % is determined. 100% means all planthoppers have been killed and 0% means none of the planthoppers have been killed.

SMILES	mortality at 100 g/ha [1]	pest or weed control at 32 µg/disc, 100 g/ha [2]	mortality at 4 mg/m2 [3]	mortality at 20 mg/m2 [3]	mortality at 100 g/ha [4]	mortality at 4 mg/m2 [5]	mortality at 20 mg/m2 [5]	mortality at 20 mg/m2 [6]	efficacy (fleas dead or moribund) [7]	mortality at 100 ppm [8]	pest or weed control at 0.004 mg [9]	mortality at 4 ppm [10]	pest or weed control at 5 µg/cm2 [11]	pest or weed control at 5 µg/cm2, 500 g/ha [12]	mortality at 4 mg/m2 [6]	pest or weed control at 0.02 mg ([9]; 20 μg/animal)	mortality at 500 g/ha [13]	mortality at 100 g/ha ([14]; 100 g/ha)	mortality at 500 g/ha ([14]; 500 g/ha)	mortality at 100 g/ha [13]
CC(NC(=O)c1cc(OC(F)(F)F)cc(C2(C#N)CC2)c1)c1ncnn1-c1ncc(C#N)s1 (racemic) [I-87, (rac)-3-(1-cyanocyclopropyl)-N-{1-[1-(5-cyano-1,3-thiazol-2-yl)-1H-1,2,4-triazol-5-yl]ethyl}-5-(trifluoromethoxy)benzamide]	100%	100%	80 to 100%	80 to 100%	100%	90 to 100%	80 to 100%	80 to 100%												
CC(NC(=O)c1cc(OC(F)(F)F)cc(C(F)F)c1)c1ncnn1-c1ncc(C#N)s1 (stereo not drawn) [I-26]	100%	100%		80 to 100%		90 to 100%	80 to 100%	80 to 100%	100%	100%	100%	100%	100%							
CC(NC(=O)c1cc(OC(F)F)cc(OC(F)F)c1)c1ncnn1-c1ncc(C#N)s1 (stereo not drawn) [I-31]	100%	100%	80 to 100%	80 to 100%	90%	90 to 100%	80 to 100%			100%	100%	100%	100%	100%	80 to 100%					
C[C@H](NC(=O)c1cc(Cl)cc(S(C)(=O)=O)c1)c1ncnn1-c1ncc(C#N)s1 [I-36]	100%	100%	80 to 100%	80 to 100%					100%	100%	100%	100%	90%		80 to 100%	100%				
C[C@H](NC(=O)c1cc(C(F)(F)F)cc(C(F)(F)F)c1)c1ncnn1-c1ncc(C(=O)N(C)C)s1 [I-64]	100%	100%		80 to 100%	100%	90 to 100%	80 to 100%	80 to 100%	100%				100%	100%			100%	90%	90%	
C[C@H](NC(=O)c1cc(Cl)cc(C(F)(F)Cl)c1)c1ncnn1-c1ncc(C#N)s1 [I-85]	100%	100%	80 to 100%	80 to 100%	100%	90 to 100%	80 to 100%	80 to 100%							80 to 100%					
C[C@H](NC(=O)c1cc(Br)cc(OC(F)(F)F)c1)c1ncnn1-c1ncc(C(=O)N(C)C)s1 [I-118]	100%	100%		80 to 100%			80 to 100%	80 to 100%							80 to 100%		100%			100%
C[C@H](NC(=O)c1cc(OC(F)F)cc(SC(F)F)c1)c1ncnn1-c1ncc(C#N)s1 [I-130]	100%	100%		80 to 100%	90%	90 to 100%	80 to 100%	80 to 100%									100%			
C[C@H](NC(=O)c1cc(OC(F)(F)F)cc(C2(C#N)CC2)c1)c1ncnn1-c1ncc(C#N)s1 [I-142]	100%	100%	80 to 100%	80 to 100%	90%	90 to 100%	80 to 100%	80 to 100%									100%			
